In ChEMBL document CHEMBL5465560, “Selectivity Literature for EUbOPEN Chemogenomic Library” (2024):
Each block holds one compound with its values, some of them ahead of it.

Legend:
[1] = target: Receptor tyrosine-protein kinase erbB-3 (Homo sapiens) (UniProt P21860); assay: Selectivity interaction (KinomeScan (DiscoverX)) EUB0000618a ERBB3; details: at 10 µM
[2] = target: T1, Cyclin-dependent kinase 11A (Homo sapiens) (UniProt Q9UQ88); assay: Selectivity interaction (KinomeScan (DiscoverX)) EUB0000607a CDK11A; details: at 10 µM
T1 sequence (whole entry): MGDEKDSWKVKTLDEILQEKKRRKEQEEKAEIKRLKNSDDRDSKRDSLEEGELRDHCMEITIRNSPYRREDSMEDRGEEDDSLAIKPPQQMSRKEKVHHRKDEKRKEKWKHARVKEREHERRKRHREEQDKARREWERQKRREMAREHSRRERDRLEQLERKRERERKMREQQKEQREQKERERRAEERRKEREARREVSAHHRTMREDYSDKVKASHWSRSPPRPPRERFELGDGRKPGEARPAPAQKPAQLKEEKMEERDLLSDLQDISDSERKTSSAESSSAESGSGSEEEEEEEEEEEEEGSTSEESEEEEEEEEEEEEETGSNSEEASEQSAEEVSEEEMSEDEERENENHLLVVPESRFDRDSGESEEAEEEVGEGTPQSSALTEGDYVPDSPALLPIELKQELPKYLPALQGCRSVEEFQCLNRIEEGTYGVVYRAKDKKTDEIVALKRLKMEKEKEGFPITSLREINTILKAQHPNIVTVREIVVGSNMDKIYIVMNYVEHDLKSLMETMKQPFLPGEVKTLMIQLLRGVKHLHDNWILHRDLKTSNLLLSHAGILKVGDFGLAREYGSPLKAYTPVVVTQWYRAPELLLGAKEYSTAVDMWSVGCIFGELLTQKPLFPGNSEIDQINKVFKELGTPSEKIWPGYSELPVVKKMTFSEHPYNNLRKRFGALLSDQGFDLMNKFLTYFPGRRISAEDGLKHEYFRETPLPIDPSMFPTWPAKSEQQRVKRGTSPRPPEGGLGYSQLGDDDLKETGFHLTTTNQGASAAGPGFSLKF

[3] = target: T2, Cytoplasmic tyrosine-protein kinase BMX (Homo sapiens) (UniProt P51813); assay: Selectivity interaction (Kinase panel (DSF assay)) EUB0001558a BMX
T2 sequence (whole entry): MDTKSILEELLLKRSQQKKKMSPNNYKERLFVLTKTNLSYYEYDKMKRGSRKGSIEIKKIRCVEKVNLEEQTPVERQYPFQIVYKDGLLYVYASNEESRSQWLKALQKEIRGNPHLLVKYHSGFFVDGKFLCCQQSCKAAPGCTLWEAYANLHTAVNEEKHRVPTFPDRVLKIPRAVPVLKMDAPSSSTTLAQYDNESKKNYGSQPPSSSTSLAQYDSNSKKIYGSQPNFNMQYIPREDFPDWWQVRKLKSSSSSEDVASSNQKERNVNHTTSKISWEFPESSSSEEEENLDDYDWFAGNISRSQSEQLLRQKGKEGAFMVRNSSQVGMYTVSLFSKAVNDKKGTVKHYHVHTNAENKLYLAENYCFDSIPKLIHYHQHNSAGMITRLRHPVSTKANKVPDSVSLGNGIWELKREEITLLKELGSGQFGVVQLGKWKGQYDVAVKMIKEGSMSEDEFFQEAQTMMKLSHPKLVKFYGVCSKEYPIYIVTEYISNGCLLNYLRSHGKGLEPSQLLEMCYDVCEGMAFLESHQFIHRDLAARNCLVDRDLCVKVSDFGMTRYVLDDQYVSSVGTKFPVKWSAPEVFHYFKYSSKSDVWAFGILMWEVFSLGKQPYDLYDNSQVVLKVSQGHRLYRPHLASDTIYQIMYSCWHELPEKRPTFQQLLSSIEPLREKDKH

[4] = target: Serine/threonine-protein kinase PAK 1 (Homo sapiens) (UniProt Q13153); assay: Selectivity interaction (KinomeScan (DiscoverX)) EUB0000045b PAK1
[5] = target: Proto-oncogene tyrosine-protein kinase Src (Homo sapiens, UniProt P12931); assay: Selectivity interaction (Upstate Kinase Profiler service (Millipore)) EUB0000056c SRC; details: at 1 µM
[6] = tested on: T3, Receptor-type tyrosine-protein kinase FLT3 (Homo sapiens), P36888 [D835Y]; details: at 10 µM
T3 sequence (whole entry): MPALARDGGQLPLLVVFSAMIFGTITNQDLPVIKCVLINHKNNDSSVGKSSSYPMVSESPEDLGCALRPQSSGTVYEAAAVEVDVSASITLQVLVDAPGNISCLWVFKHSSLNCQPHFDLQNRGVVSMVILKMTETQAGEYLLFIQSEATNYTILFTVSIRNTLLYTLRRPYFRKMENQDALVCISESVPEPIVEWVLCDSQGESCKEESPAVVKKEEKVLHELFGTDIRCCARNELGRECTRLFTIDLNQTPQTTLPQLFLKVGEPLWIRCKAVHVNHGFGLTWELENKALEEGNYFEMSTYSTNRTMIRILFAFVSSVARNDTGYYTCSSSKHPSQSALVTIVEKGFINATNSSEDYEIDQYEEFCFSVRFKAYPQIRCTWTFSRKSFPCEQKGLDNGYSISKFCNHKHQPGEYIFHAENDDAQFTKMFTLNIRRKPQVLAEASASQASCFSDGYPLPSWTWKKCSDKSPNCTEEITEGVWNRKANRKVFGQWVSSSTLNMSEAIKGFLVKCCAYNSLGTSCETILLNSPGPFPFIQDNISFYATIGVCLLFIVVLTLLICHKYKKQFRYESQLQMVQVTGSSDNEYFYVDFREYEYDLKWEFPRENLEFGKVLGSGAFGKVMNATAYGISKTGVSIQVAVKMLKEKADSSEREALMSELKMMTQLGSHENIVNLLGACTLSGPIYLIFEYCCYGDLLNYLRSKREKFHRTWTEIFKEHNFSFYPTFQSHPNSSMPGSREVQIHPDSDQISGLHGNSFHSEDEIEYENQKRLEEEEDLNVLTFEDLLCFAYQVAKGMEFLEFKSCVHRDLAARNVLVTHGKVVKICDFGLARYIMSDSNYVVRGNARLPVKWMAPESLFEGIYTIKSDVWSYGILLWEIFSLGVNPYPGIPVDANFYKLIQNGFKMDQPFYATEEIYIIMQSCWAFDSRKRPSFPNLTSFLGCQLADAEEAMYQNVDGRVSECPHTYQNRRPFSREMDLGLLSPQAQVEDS

[7] = target: Death-associated protein kinase 3 (Homo sapiens) (UniProt O43293); details: at 10 µM
[8] = target: Serine/threonine-protein kinase 38 (Homo sapiens) (UniProt Q15208); assay: Selectivity interaction (KinomeScan (DiscoverX)) EUB0001049a STK38; details: at 1 µM
[9] = target: Dual specificity protein kinase CLK2 (Homo sapiens, UniProt P49760); assay: Selectivity interaction (KinomeScan (DiscoverX)) EUB0001049a CLK2; details: at 1 µM
[10] = target: Serine/threonine-protein kinase SIK1 (Homo sapiens) (UniProt P57059); assay: Selectivity interaction (KinomeScan (DiscoverX)) EUB0000695a SIK1; details: at 100 nM
Chain of Serine/threonine-protein kinase SIK1 (Homo sapiens) (P57059 whole entry): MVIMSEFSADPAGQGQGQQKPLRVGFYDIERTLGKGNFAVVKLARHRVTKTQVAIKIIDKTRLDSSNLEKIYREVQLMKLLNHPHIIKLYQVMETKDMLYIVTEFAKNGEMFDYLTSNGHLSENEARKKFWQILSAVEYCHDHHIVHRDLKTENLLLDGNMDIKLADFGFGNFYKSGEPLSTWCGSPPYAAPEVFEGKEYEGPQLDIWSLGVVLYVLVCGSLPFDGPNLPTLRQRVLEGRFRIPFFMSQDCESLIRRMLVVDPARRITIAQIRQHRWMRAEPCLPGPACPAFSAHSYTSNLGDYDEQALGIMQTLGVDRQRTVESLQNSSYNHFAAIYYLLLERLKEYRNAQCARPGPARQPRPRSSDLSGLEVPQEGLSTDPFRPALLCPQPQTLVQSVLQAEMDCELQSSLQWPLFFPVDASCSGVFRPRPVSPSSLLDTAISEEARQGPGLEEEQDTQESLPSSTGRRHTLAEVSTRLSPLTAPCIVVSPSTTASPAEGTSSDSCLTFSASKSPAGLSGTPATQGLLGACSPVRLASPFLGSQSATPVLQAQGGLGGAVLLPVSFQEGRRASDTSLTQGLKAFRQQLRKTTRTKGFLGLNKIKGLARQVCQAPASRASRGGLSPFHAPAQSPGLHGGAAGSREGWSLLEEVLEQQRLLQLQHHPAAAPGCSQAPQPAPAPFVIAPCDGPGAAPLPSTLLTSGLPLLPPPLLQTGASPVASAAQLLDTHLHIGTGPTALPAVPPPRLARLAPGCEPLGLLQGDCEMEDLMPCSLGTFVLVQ

Chain of Serine/threonine-protein kinase PAK 1 (Homo sapiens) (Q13153 whole entry): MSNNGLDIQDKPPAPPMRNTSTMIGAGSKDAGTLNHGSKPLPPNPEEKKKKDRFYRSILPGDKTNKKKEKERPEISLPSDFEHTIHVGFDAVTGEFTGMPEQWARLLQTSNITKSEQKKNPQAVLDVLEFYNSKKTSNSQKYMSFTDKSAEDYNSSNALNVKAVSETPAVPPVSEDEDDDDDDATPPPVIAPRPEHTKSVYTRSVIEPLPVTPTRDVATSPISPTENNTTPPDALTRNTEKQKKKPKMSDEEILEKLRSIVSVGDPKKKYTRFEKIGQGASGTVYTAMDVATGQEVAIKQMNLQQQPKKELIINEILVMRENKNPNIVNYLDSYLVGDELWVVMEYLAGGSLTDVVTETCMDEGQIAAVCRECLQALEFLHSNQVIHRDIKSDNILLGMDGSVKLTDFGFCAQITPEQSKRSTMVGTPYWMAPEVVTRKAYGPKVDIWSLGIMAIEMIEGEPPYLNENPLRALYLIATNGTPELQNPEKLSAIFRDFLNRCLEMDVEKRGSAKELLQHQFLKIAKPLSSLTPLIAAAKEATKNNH
Chain of Proto-oncogene tyrosine-protein kinase Src (P12931 2-536 limits assumed): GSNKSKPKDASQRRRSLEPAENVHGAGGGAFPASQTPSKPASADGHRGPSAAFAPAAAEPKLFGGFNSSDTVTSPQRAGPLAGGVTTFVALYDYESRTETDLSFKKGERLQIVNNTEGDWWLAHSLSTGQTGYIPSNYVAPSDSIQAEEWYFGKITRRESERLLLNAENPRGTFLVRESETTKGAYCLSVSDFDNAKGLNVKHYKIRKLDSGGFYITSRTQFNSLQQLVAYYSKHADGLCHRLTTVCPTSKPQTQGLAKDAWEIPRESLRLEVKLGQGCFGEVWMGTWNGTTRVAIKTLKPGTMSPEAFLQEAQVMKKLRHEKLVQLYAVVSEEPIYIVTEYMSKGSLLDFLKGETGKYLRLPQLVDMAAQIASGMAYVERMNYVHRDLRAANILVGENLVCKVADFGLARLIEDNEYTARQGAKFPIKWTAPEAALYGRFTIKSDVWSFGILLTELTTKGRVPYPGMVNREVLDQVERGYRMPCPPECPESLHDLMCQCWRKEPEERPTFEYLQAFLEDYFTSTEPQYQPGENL
Chain of Dual specificity protein kinase CLK2 (P49760 whole entry, looked up): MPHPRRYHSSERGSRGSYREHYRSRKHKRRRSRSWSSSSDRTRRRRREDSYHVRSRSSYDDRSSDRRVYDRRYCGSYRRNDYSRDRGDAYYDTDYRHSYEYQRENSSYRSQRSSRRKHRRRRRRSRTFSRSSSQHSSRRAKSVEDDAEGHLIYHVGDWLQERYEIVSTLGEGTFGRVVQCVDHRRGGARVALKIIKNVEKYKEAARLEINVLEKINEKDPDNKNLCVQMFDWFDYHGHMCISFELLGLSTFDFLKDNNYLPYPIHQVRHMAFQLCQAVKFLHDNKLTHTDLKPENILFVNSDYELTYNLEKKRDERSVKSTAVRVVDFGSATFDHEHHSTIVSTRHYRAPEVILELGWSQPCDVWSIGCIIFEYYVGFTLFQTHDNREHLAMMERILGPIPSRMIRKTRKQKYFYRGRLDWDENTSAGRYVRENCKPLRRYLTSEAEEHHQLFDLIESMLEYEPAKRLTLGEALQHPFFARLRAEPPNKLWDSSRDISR
Chain of Death-associated protein kinase 3 (Homo sapiens) (O43293 whole entry, looked up): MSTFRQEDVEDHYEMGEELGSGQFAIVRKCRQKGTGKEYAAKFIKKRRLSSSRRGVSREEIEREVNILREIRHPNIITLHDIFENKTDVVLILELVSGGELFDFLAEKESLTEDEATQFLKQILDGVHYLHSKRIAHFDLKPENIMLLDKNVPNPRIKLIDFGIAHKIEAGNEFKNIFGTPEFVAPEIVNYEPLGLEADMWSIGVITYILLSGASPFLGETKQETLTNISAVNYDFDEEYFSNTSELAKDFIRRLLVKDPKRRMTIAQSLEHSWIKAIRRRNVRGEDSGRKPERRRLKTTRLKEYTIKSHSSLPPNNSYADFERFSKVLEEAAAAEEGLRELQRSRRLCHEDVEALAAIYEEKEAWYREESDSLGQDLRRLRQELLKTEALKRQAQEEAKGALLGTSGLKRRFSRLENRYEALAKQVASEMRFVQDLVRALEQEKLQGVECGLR
Chain of Receptor tyrosine-protein kinase erbB-3 (Homo sapiens) (P21860 whole entry): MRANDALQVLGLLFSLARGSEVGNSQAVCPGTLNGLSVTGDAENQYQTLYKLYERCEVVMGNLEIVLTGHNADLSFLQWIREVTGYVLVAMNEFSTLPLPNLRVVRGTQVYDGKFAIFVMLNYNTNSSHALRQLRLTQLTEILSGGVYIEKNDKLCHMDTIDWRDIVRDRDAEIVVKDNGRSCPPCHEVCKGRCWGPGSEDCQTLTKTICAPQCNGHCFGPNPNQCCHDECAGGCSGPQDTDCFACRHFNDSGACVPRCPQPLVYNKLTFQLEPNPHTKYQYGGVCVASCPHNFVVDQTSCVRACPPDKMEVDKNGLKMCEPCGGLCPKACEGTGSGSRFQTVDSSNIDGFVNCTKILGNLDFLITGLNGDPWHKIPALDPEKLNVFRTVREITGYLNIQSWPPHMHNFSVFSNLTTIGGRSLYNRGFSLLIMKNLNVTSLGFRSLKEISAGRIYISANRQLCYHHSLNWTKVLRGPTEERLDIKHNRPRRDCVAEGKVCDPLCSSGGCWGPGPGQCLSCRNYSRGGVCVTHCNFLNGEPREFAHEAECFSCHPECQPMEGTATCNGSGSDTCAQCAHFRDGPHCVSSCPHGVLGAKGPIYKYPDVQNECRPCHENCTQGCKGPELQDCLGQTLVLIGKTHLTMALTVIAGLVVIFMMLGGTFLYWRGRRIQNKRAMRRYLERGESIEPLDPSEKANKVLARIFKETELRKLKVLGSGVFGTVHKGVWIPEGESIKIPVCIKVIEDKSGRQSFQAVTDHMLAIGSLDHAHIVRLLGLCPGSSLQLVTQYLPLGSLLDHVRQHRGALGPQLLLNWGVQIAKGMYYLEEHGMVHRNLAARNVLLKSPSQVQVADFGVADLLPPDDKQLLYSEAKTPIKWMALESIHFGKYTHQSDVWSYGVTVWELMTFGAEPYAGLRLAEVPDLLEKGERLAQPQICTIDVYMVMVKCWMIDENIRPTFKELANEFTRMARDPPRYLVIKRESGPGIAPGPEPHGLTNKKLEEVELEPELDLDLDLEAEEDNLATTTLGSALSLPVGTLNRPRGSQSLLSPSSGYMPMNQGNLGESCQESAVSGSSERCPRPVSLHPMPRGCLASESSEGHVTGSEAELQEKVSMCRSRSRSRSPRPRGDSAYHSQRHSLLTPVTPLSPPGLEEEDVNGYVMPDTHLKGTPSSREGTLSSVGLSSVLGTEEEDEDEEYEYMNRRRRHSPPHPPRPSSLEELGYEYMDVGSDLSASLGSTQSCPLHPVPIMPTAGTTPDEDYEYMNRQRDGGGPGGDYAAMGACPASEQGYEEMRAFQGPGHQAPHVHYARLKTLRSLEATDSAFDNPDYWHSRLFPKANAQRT
Chain of Serine/threonine-protein kinase 38 (Homo sapiens) (Q15208 2-465 limits assumed): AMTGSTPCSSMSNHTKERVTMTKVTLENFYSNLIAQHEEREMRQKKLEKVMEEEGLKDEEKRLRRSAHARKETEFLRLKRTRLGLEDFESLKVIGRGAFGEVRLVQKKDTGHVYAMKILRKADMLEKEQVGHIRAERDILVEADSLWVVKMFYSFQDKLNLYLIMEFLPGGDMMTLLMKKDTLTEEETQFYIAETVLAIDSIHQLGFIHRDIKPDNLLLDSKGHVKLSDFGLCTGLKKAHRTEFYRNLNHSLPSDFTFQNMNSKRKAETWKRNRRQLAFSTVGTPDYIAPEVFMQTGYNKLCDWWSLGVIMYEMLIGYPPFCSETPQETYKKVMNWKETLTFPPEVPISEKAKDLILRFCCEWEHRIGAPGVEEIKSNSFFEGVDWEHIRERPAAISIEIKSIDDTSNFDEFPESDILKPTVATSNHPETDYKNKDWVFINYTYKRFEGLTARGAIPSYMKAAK

Compound: O[C@H]1CC[C@H](Nc2ncc3nc(Nc4c(F)cc(F)cc4F)n([C@H]4CCOC4)c3n2)CC1
- % of control [1]: 4.6%

Compound: CNC(=O)Nc1ccc(-c2nc(N3CC4CCC(C3)O4)c3cnn(C4CCC5(CC4)OCCO5)c3n2)cc1
- % of control [2]: 97%

Compound: CC(C)(O)[C@H](F)CN1Cc2cc(NC(=O)c3cnn4cccnc34)c(N3CCOCC3)cc2C1=O
- dTM [3]: 0.2 K

Compound: C=CC(=O)Nc1cc(-n2c(=O)ccc3cnc4ccc(-c5ccc(NS(C)(=O)=O)cc5)cc4c32)ccc1C
- % of control ([4]; at 1 µM): 86%
- % of control ([4]; at 10 µM): 62%

- % of inhibition [5]: 12%
Compound: Cc1ccc(-c2ccc3c(ccc4sc5c(c43)NC[C@@H](C)NC5=O)n2)cn1

Compound: Cc1cc([C@@H](C)Nc2ccccc2C(=O)O)c2nc(N3CCOCC3)cc(=O)n2c1 [AZD-6482]
- % of control [6]: 54%
- % of control [7]: 100%

Compound: COc1cc(Nc2nc(C)cc(-c3cnn4nc(OC)ccc34)n2)cc(C(F)(F)F)c1
- % of control [8]: 90%
- % of control [9]: 96%

Compound: Cc1cc(F)c(C(=O)Nc2cccc(-c3nncn3C(C)C)n2)cc1-n1cnc(C2CC2)c1
- % of control [10]: 94%
